Experimental data reported in PMC8421423, “Cellular model system to dissect the isoform-selectivity of Akt inhibitors” (Nature Communications, 2021).
Where “and” joins values, the source holds several entries; their conditions need not be identical. Identical values can stand only once. Like-named read-outs stand apart in the source and are kept apart here.

Legend:
[1] = system: Ba/F3^myr-Akt1 cells; experiment: CellTiter-Glo cell viability assay; details: for Log ratio EC50 [Akt] / EC50 [Akt], Akt1 / Akt2: cell viability assay Ba/F3 myr-Akt cells, log units
Procedure: (§1) On day 0, cells were plated into white 384-well cell culture plates (Greiner Bio-One) using a Multidrop reagent dispenser (Thermo Fisher Scientific) at cell numbers that ensure linear and optimal luminescent signal intensity (Ba/F3myr-Akt1: 600 cells/well, Ba/F3myr-Akt2: 800 cells/well, Ba/F3myr-Akt3: 800 cells/well). […] Cell viability was analyzed on day 4 using the CellTiter-Glo Assay (Promega) as per the manufacturer’s instructions. […] All experimental points were measured in duplicates for each plate and were replicated in at least three plates.

[2] = molecular target: T1, Akt1 (Homo sapiens, UniProt P31749); experiment: STK HTRF KinEASE activity-based assay (IC50); details: for Log ratio IC50 [Akt] / IC50 [Akt], Akt1 / Akt2: biochemical activity based assay, log units
[3] = system: parental Ba/F3 cells; experiment: CellTiter-Glo cell viability assay; assay type: cell-based, murine
[4] = molecular target: Akt3 (Homo sapiens, UniProt Q9Y243); experiment: STK HTRF KinEASE activity-based assay (IC50)
[5] = molecular target: T2, Akt2 (Homo sapiens, UniProt P31751); experiment: STK HTRF KinEASE activity-based assay (IC50)
[6] = system: Ba/F3^myr-Akt3 cells; experiment: CellTiter-Glo cell viability assay; details: for Log ratio EC50 [Akt] / EC50 [Akt], Akt3 / Akt2: cell viability assay Ba/F3 myr-Akt cells, log units
[7] = molecular target: T2, Akt2; experiment: PhosphoSens continuous fluorometric kinetic enzyme assay
Procedure: (§2) By addition of either 8 nM Akt1, 2 nM Akt2, or 5 nM Akt3 (final concentrations) the reactions were initiated. […] Afterwards the kobs-values were plotted versus the inhibitor concentrations [I] and then fit to the following hyperbolic Eq.

[8] = molecular target: T1, Akt1; experiment: as above
Procedure: as §2

[9] = system: Ba/F3^myr-Akt2 cells; experiment: CellTiter-Glo cell viability assay
Procedure: as §1

[10] = system: pAkt^S473 and downstream targets in Ba/F3 myr-Akt1; details: Ba/F3 myr-Akt1, 4-h treatment
[11] = Mus musculus, read-out: CTG BaF3myr-Akt1, Mean, mean of replicates
[12] = Mus musculus, read-out: CTG BaF3myr-Akt1, individual determinations, single replicates
[13] = read-out: CTG BaF3myr-Akt1, individual determinations, single replicates
[14] = HTRF IC50 Akt1, Mean, mean of replicates
[15] = HTRF IC50 Akt1, individual determinations, single replicates
[16] = IC50 Akt1, HTRF, ATP at KM, 1 h preincubation
[17] = parental cells, single replicates, read-out: CTG BaF3, individual determinations
[18] = HTRF IC50 Akt3, Mean, mean of replicates
[19] = HTRF IC50 Akt3, individual determinations, single replicates
[20] = IC50 Akt3, HTRF, ATP at KM, 1 h preincubation
[21] = HTRF IC50 Akt2, Mean, mean of replicates
[22] = HTRF IC50 Akt2, individual determinations, single replicates
[23] = IC50 Akt2, HTRF, ATP at KM, 1 h preincubation
[24] = Mus musculus, read-out: CTG BaF3myr-Akt3, Mean, mean of replicates
[25] = Mus musculus, read-out: CTG BaF3myr-Akt3, individual determinations, single replicates
[26] = read-out: CTG BaF3myr-Akt3, individual determinations, single replicates
[27] = Ki Akt2, Mean, mean of replicates
[28] = Ki Akt2, individual determinations, single replicates
[29] = read-out: kinact /Ki Akt2, Mean, mean of replicates
[30] = read-out: kinact /Ki Akt2, individual determinations, single replicates
[31] = read-out: kinact Akt2, individual determinations, single replicates
[32] = Ki Akt1, Mean, mean of replicates
[33] = Ki Akt1, individual determinations, single replicates
[34] = read-out: kinact /Ki Akt1, Mean, mean of replicates
[35] = read-out: kinact Akt1, individual determinations, single replicates
[36] = Mus musculus, read-out: CTG BaF3myr-Akt2, Mean, mean of replicates
[37] = Mus musculus, read-out: CTG BaF3myr-Akt2, individual determinations, single replicates
[38] = read-out: CTG BaF3myr-Akt2, individual determinations, single replicates
[39] = Mus musculus, BaF3, parental cells, mean of replicates, read-out: CTG BaF3, Mean

Chain of Akt3 (Q9Y243 whole entry): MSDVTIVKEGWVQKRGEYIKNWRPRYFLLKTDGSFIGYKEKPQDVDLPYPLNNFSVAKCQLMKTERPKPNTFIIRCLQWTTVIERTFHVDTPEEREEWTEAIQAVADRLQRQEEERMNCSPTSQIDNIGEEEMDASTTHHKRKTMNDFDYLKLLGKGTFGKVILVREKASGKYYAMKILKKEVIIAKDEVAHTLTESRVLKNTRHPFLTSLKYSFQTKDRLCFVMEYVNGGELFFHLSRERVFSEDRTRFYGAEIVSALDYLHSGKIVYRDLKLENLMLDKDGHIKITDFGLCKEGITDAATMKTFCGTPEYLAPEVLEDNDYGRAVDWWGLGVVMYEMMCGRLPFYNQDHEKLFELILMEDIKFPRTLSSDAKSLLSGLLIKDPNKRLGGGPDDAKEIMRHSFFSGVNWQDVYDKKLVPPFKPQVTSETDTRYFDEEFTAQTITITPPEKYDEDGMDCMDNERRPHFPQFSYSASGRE
T1 sequence (P31749 whole entry): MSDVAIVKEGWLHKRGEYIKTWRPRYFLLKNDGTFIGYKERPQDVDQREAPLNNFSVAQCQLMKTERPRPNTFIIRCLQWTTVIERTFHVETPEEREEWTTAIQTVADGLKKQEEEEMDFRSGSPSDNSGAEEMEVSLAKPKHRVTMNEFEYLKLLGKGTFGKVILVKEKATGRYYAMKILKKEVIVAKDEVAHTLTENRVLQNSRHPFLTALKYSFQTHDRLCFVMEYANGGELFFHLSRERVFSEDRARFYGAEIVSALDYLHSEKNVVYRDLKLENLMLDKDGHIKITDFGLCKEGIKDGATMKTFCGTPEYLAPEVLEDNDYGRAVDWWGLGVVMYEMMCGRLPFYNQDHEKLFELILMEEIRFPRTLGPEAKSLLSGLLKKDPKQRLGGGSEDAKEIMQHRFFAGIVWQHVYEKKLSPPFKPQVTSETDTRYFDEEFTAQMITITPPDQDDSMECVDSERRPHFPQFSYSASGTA
T2 sequence (P31751 whole entry): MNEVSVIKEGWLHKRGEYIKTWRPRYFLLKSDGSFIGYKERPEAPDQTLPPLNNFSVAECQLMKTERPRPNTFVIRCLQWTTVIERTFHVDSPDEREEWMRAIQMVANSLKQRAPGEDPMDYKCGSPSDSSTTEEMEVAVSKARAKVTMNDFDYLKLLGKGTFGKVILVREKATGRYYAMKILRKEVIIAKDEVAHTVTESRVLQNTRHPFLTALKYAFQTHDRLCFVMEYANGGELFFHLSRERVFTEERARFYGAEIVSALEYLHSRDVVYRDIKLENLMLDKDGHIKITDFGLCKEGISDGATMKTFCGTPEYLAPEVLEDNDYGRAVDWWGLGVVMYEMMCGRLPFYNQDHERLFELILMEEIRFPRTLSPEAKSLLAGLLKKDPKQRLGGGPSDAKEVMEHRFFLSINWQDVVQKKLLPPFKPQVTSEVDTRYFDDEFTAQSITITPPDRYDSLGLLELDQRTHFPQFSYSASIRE

## C=CC(=O)Nc1ccc2[nH]c(=O)n(C3CCN(Cc4ccc(-c5ncc(C(=O)Nc6cnn(C)c6)cc5-c5ccccc5)cc4)CC3)c2c1 [compound 13]
[1]; [11]
  EC50: 19.3 µM
[1]; [12]
  EC50: 21.3 µM
[1]
  Log ratio EC50 [Akt] / EC50 [Akt], Akt1 / Akt2: 0.43
[1]; [13]
  EC50: 19.5 µM and 17.1 µM
[2]; [14]
  IC50: 0.0976 µM
[2]; [15]
  IC50: 0.113 µM and 0.096 µM and 0.0844 µM
[2]; [16]
  IC50: 0.098 ± 0.015 µM
[2]
  Log ratio IC50 [Akt] / IC50 [Akt], Akt1 / Akt2: 0.27
[3]; [17]
  EC50: 9.1 µM and 28.8 µM and > 30 µM
[4]; [18]
  IC50: 3.54 µM
[4]; [19]
  IC50: 3.08 µM and 3.13 µM and 4.41 µM
[4]; [20]
  IC50: 3.54 ± 0.617 µM
[5]; [21]
  IC50: 0.0535 µM
[5]; [22]
  IC50: 0.0539 µM and 0.0591 µM and 0.0474 µM
[5]; [23]
  IC50: 0.053 ± 0.005 µM
[6]; [24]
  EC50: 22.6 µM
[6]; [25]
  EC50: 25.8 µM
[6]
  Log ratio EC50 [Akt] / EC50 [Akt], Akt3 / Akt2: -0.50
[6]; [26]
  EC50: 26.5 µM and 15.6 µM
[7]; Ki Akt2
  Ki: 0.04 ± 0.003 µM
[7]; [27]
  Ki: 0.0408 µM
[7]; [28]
  Ki: 42.3 nM (2×) and 37.7 nM
[7]; read-out: kinact /Ki Akt2
  kinact/KI: 8000 ± 1000 M⁻¹ s⁻¹
[7]; [29]
  kinact/KI: 7580 M⁻¹ s⁻¹
[7]; [30]
  kinact/KI: 7430 M⁻¹ s⁻¹
[7]; read-out: kinact Akt2
  kinact: 0.000317 s⁻¹
[7]; read-out: kinact Akt2, Mean, mean of replicates
  kinact: 0.000317 s⁻¹
[7]; [31]
  kinact: 0.000317 s⁻¹
[7]; single replicates
  kinact /Ki Akt2, individual determinations: 0.00743
  kinact Akt2, individual determinations: 0.019 min⁻¹ and 0.018 min⁻¹
[8]; Ki Akt1
  Ki: 0.008 ± 0.002 µM
[8]; [32]
  Ki: 0.00812 µM
[8]; [33]
  Ki: 0.0055 µM and 0.0109 µM
[8]; read-out: kinact /Ki Akt1
  kinact/KI: 31000 ± 11000 M⁻¹ s⁻¹
[8]; [34]
  kinact/KI: 31000 M⁻¹ s⁻¹
[8]; read-out: kinact Akt1
  kinact: 0.000233 s⁻¹
[8]; [35]
  kinact: 0.00025 s⁻¹
[8]; single replicates
  kinact Akt1, individual determinations: 0.012 min⁻¹ and 0.015 min⁻¹
[9]; [36]
  EC50: 7.18 µM
[9]; [37]
  EC50: 7.17 µM
[9]; [38]
  EC50: 6.22 µM and 7.66 µM

## NC1(C(=O)N[C@@H](CCO)c2ccc(Cl)cc2)CCN(c2ncnc3[nH]ccc23)CC1 [Capivasertib, reference compound]
[1]; [11]
  EC50: 1.07 µM
[1]; [12]
  EC50: 1.29 µM
[1]; [13]
  EC50: 0.706 µM and 1.2 µM and 1.1 µM
[3]; [39]
  EC50: 16 µM
[3]; [17]
  EC50: 11 µM and 13.9 µM and 23 µM
[10]
  pAkt and downstream targets (immunoblot): less effective
[9]; [36]
  EC50: 0.938 µM
[9]; [37]
  EC50: 1.14 µM
[9]; [38]
  EC50: 1.07 µM and 0.6 µM

## C=CC(=O)Nc1ccc2[nH]c(=O)n(C3CCN(Cc4ccc(-c5ncc(C(=O)Nc6cccnc6)cc5-c5ccccc5)cc4)CC3)c2c1 [compound 22]
[1]; [12]
  EC50: > 30 µM
[1]
  Log ratio EC50 [Akt] / EC50 [Akt], Akt1 / Akt2: 0.79
[1]; [13]
  EC50: 15.1 µM and 22.5 µM
[2]; [14]
  IC50: 0.209 µM
[2]; [15]
  IC50: 0.248 µM and 0.169 µM and 0.245 µM
[2]; [16]
  IC50: 0.209 ± 0.04 µM
[2]
  Log ratio IC50 [Akt] / IC50 [Akt], Akt1 / Akt2: 0.58
[3]; Mus musculus, BaF3, CTG, parental BaF3 cell line, read-out: EC50 BaF3
  EC50: > 30 µM
[3]; [39]
  EC50: > 30 µM
[3]; Mus musculus, BaF3, parental cells, single replicates, read-out: CTG BaF3, individual determinations
  EC50: > 30 µM
[3]; [17]
  EC50: > 30 µM
[4]; [18]
  IC50: 3.05 µM
[4]; [19]
  IC50: 2.24 µM and 3.09 µM and 3.82 µM
[4]; [20]
  IC50: 3.05 ± 0.646 µM
[5]; [21]
  IC50: 0.0547 µM
[5]; [22]
  IC50: 0.0575 µM and 0.0588 µM and 0.0479 µM
[5]; [23]
  IC50: 0.055 ± 0.005 µM
[6]; [24]
  EC50: 18.8 µM
[6]; [25]
  EC50: 18.3 µM
[6]
  Log ratio EC50 [Akt] / EC50 [Akt], Akt3 / Akt2: -0.71
[6]; [26]
  EC50: 20.7 µM and 18.2 µM
[7]; Ki Akt2
  Ki: 0.011 ± 0.001 µM
[7]; [27]
  Ki: 0.0108 µM
[7]; [28]
  Ki: 0.0094 µM and 0.0107 µM and 0.0122 µM
[7]; read-out: kinact /Ki Akt2
  kinact/KI: 23000 ± 7000 M⁻¹ s⁻¹
[7]; [29]
  kinact/KI: 23000 M⁻¹ s⁻¹
[7]; [30]
  kinact/KI: 30000 M⁻¹ s⁻¹
[7]; read-out: kinact Akt2
  kinact: 0.000233 s⁻¹
[7]; [31]
  kinact: 0.000283 s⁻¹
[7]; single replicates
  kinact Akt2, individual determinations: 0.013 min⁻¹ and 0.012 min⁻¹
[8]; Ki Akt1
  Ki: 0.009 ± 0.003 µM
[8]; [32]
  Ki: 0.00874 µM
[8]; [33]
  Ki: 0.012 µM and 0.0059 µM and 0.0083 µM
[8]; read-out: kinact /Ki Akt1
  kinact/KI: 26000 ± 1000 M⁻¹ s⁻¹
[8]; [34]
  kinact/KI: 26000 M⁻¹ s⁻¹
[8]; read-out: kinact /Ki Akt1, individual determinations, single replicates
  kinact/KI: 26000 M⁻¹ s⁻¹
[8]; read-out: kinact Akt1
  kinact: 0.000233 s⁻¹
[8]; [35]
  kinact: 0.000317 s⁻¹
[8]; single replicates
  kinact Akt1, individual determinations: 0.010 min⁻¹ and 0.013 min⁻¹
[9]; [36]
  EC50: 3.68 µM
[9]; [38]
  EC50: 3.19 µM and 5.41 µM and 2.46 µM
